Laboratory results from patent US7417156B2, “Orally active, antimalarial, anticancer, artemisinin-derived trioxane dimers” (Johns Hopkins University, priority 2002, dated 2008).

Legend:
K-562 = assay: NCI 60 cell line panel screen (SRB); format: cell-based, human
MDA-MB-435 = assay: NCI 60 cell line panel screen (SRB); format: cell-based, human
SK-MEL-2 = assay: NCI 60 cell line panel screen (SRB); format: cell-based, human
CAKI-1 = assay: NCI 60 cell line panel screen (SRB); format: cell-based, human; details: CAKI-1 (Renal Cancer); LC50: PG=−50
UACC-257 = assay: NCI 60 cell line panel screen (SRB); format: cell-based, human
SNB-75 = assay: NCI 60 cell line panel screen (SRB); format: cell-based, human; details: SNB-75 (CNS Cancer)
NCI-H23 = assay: NCI 60 cell line panel screen (SRB); format: cell-based, human
PC-3 = assay: NCI 60 cell line panel screen (SRB); format: cell-based, human
MOLT-4 = test system: MOLT-4
Method: Growth Inhibition. […] The screening assay is performed on 96-well microtitre plates. Relatively high initial inoculation densities are used, in order to permit measurement of “time-zero” values and to enhance the screen's ability to detect and provide some differentiation between growth inhibition and cytotoxic response parameters. […] The inoculated microtitre plates are pre-incubated for 24 hours at 37° C. prior to drug additions. The five drug dilutions tested routinely range from 10^−4 to 10^−8 molar. Higher or lower concentration ranges may be selected on a non-routine basis if appropriate solubility and/or prior biological information or other screening data so dictate. Duplicate wells are prepared for all concentrations, (concentration is often denoted by placing brackets around a number); “time-zero” and “no drug” controls are also provided for each test. The minimum amount of compound required for a one-time evaluation in the routine screen can be calculated from the knowledge that each test requires a total of approximately 40 ml (0.04 liter) of cell culture medium containing the highest desired drug concentration. […] After a 48 hour incubation (37° C.) with the test compound, the cells are fixed in situ to the bottoms of the microtitre wells by addition of 50 μl of either 50% trichloroacetic acid (for adherent cell lines) or 80% trichloroacetic acid (for settled cell suspension lines), followed by incubation for 60 minutes at 4° C. The cellular protein in each well is assayed using a sulforhodamine B (SRB) stain procedure. Briefly, after discarding the supernatants, the microtitre plates are washed 5 times with deionized water and air-dried. […] Unbound SRB is removed by washing 5 times with 1% acetic acid. […] SRB is a bright pink anionic dye which, in dilute acetic acid, binds electrostatically to the basic amino acids of TCA-fixed cells. Cryopreserved master stocks of all the lines are maintained, and cultures used for screening are replaced from the master stock after no more than twenty passages in the screening laboratory. The cell line panel consists of 60 lines, organized into nine, disease-related subpanels including leukemia, non-small-cell lung cancer, colon, CNS, melanoma, ovarian, renal, prostate and breast cancers.
At this value the increase from time tzero, in the number or mass of cells in the test well is only 50% as much as the corresponding increase in the control well during this period of the experiment, see Table III. A drug effect of this intensity is interpreted as primary growth inhibition.
At this value the number or mass of cells in the well at the end of the experiment equals the number or mass of cells in the well at time tzero, see Table IV. A drug effect of this intensity is regarded as cytostasis.
At this value, the number or mass of cells in the test well at the end of the experiment is half that at time tzero, see Table V. This is interpreted as cytotoxicity.
Dose response curves, shown in the above mentioned Figures, are obtained by exposing various cancer cell lines to compounds having a known concentration ([log10M]), as discussed in detail above, and then plotting the percentage growth of each cell line for each concentration. […] Percentage growth is determined by dividing the number or mass of cells in the test well by the number or mass of cells in a control well. […] As discussed previously, the five drug dilutions routinely tested range from 10^−4 to […].

HOP-62 = assay: NCI 60 cell line panel screen (SRB); format: cell-based, human
OVCAR-8 = assay: NCI 60 cell line panel screen (SRB); format: cell-based, human
SK-MEL-28 = assay: NCI 60 cell line panel screen (SRB); format: cell-based, human
CCRF-CEM = assay: NCI 60 cell line panel screen (SRB); format: cell-based, human
RPMI-8226 = assay: NCI 60 cell line panel screen (SRB); format: cell-based, human
RXF 393 = assay: NCI 60 cell line panel screen (SRB); format: cell-based, human

## C[C@@H]1CC[C@H]2[C@@H](C)C(CC(O)(COC(=O)CCC(=O)O)CC3OC4O[C@]5(C)CC[C@H]6[C@H](C)CC[C@@H]([C@H]3C)C46OO5)OC3O[C@]4(C)CCC1C32OO4 (some centres unmarked) [Compound 9, tertiary alcohol primary succinate ester]
K-562; K-562 (Leukemia), LC50: PG=−50
  Log10LC50: >−4.30 log10M
K-562; K-562 (Leukemia), TGI: PG=0
  Log10TGI50: >−4.30 log10M
K-562; Leukemia, K-562
  Log10GI50: −8.30
MDA-MB-435; Breast Cancer, MDA-MB-435
  Log10GI50: <−8.30
MDA-MB-435; MDA-MB-435 (Breast Cancer), LC50: PG=−50
  Log10LC50: >−4.30 log10M
MDA-MB-435; MDA-MB-435 (Breast Cancer), TGI: PG=0
  Log10TGI50: >−4.30 log10M
SK-MEL-2; Melanoma, SK-MEL-2
  Log10GI50: −4.88
SK-MEL-2; SK-MEL2 (Melanoma), LC50: PG=−50
  Log10LC50: >−4.30 log10M
SK-MEL-2; SK-MEL-2 (Melanoma), TGI: PG=0
  Log10TGI50: >−4.30 log10M
CAKI-1
  Log10LC50: >−4.30 log10M
UACC-257; Melanoma, UACC-257
  Log10GI50: −4.89
UACC-257; UACC-257 (Melanoma), LC50: PG=−50
  Log10LC50: >−4.30 log10M
UACC-257; UACC-257 (Melanoma), TGI: PG=0
  Log10TGI50: >−4.30 log10M
SNB-75; LC50: PG=−50
  Log10LC50: >−4.30 log10M
SNB-75; TGI: PG=0
  Log10TGI50: >−4.30 log10M
NCI-H23; NCI-H23 (Non-Small Cell Lung Cancer), LC50: PG=−50
  Log10LC50: >−4.30 log10M
NCI-H23; NCI-H23 (Non-Small Cell Lung Cancer), TGI: PG=0
  Log10TGI50: −4.65 log10M
NCI-H23; Non-Small Cell Lung Cancer, NCI-H23
  Log10GI50: <−8.30
PC-3; PC-3 (Prostate Cancer), LC50: PG=−50
  Log10LC50: >−4.30 log10M
PC-3; PC-3 (Prostate Cancer), TGI: PG=0
  Log10TGI50: >−4.30 log10M
PC-3; Prostate Cancer, PC-3
  Log10GI50: <−8.30
MOLT-4; Leukemia, MOLT-4
  Log10GI50: −5.15
MOLT-4; MOLT-4 (Leukemia), LC50: PG=−50
  Log10LC50: >−4.30 log10M
MOLT-4; MOLT-4 (Leukemia), TGI: PG=0
  Log10TGI50: >−4.30 log10M
MOLT-4; MOLT-4, from dose response curves FIGS. 7a-7i
  drug concentration for primary growth inhibition (percentage growth +50): < 10^−5 molar
MOLT-4; human, 48 h
  concentration for cytotoxicity (percentage growth −50): greater than 10^−4 M
HOP-62; HOP-62 (Non-Small Cell Lung Cancer), LC50: PG=−50
  Log10LC50: >−4.30 log10M
HOP-62; HOP-62 (Non-Small Cell Lung Cancer), TGI: PG=0
  Log10TGI50: >−4.30 log10M
HOP-62; Non-Small Cell Lung Cancer, HOP-62
  Log10GI50: −5.69
OVCAR-8; OVCAR-8 (Ovarian Cancer), LC50: PG=−50
  Log10LC50: >−4.30 log10M
OVCAR-8; OVCAR-8 (Ovarian Cancer), TGI: PG=0
  Log10TGI50: >−4.30 log10M
OVCAR-8; Ovarian Cancer, OVCAR-8
  Log10GI50: −5.12
SK-MEL-28; Melanoma, SK-MEL-28
  Log10GI50: <−8.30
SK-MEL-28; SK-MEL-28 (Melanoma), LC50: PG=−50
  Log10LC50: >−4.30 log10M
SK-MEL-28; SK-MEL-28 (Melanoma), TGI: PG=0
  Log10TGI50: >−4.30 log10M
CCRF-CEM; CCRF-CEM (Leukemia), LC50: PG=−50
  Log10LC50: >−4.30 log10M
CCRF-CEM; CCRF-CEM (Leukemia), TGI: PG=0
  Log10TGI50: >−4.30 log10M
CCRF-CEM; Leukemia, CCRF-CEM
  Log10GI50: <−8.30
RPMI-8226; Leukemia, RPMI-8226
  Log10GI50: <−8.30
RPMI-8226; RPMI-8226 (Leukemia), LC50: PG=−50
  Log10LC50: >−4.30 log10M
RPMI-8226; RPMI-8226 (Leukemia), TGI: PG=0
  Log10TGI50: >−4.30 log10M
RXF 393; RXF 393 (Renal Cancer), LC50: PG=−50
  Log10LC50: >−4.30 log10M
RXF 393; RXF 393 (Renal Cancer), TGI: PG=0
  Log10TGI50: −4.45 log10M
RXF 393; Renal Cancer, RXF 393
  Log10GI50: −7.67
